Measurements from patent US10457691B2, “Macrocyclic kinase inhibitors and uses thereof” (Dana-Farber Cancer Institute, Inc., priority 2014, dated 2019).

How the values were obtained:
Format in all cases: biochemical
[1] = target: DYRK3 (Homo sapiens, UniProt O43781); test: Protein kinase assay ([γ-32P] ATP), DYRK3; conditions: read-out: Activity of the protein kinase when treated with compound I-1 (% control)
Procedure: (§1) In another set of experiments, the activities of the compounds described herein against various protein kinases were determined according to the methods reported in Hastie et al., Nature Protocols, 2006, 1, 968-971.
(§2) Enzyme dilution buffer. This buffer consisted of 50 mM Tris-HCl, pH 7.5, 0.1 mM EGTA, 1 mg ml^−1 bovine serum albumin and 0.1% (vol/vol) 2-mercaptoethanol.
(§3) 10× concentrated assay buffer. An assay buffer of 500 mM Tris-HCl, pH 7.5, 1 mM EGTA, and 100 mM magnesium acetate was used for assay of a wide variety of protein kinases. In some experiments, other cofactors were included (e.g., calcium ions and calmodulin were included for assay of calcium-calmodulindependent protein kinases).
(§4) 1 mM [γ-^32P] ATP. The specific activity of the [γ-^32P] ATP solution was 1×10^5 to 1×10^6 c.p.m. per nmol depending on what was needed to produce an optimal signal/noise ratio. […] To measure the concentration of ATP, a sample of such a stock solution was diluted to 20 μM, and the absorbance of the diluted sample was measured at 259 nm. The absorbance of a 20-μM stock solution of ATP at 259 nm was about 0.31. […] ATP to produce a radioactivity of 1×10^5 to 1×10^6 c.p.m. per nmol. […]
(§5) 13) Measure radioactivity in the samples by Cerenkov counting (e.g., without liquid scintillation fluid) in a liquid scintillation counter using a “^32P program”. […]

[2] = target: HIPK2 (Homo sapiens, UniProt Q9H2X6); test: Protein kinase assay ([γ-32P] ATP), HIPK2; conditions: read-out: Activity of the protein kinase when treated with compound I-1 (% control)
Procedure: as §1, §2, §3, §4, §5

[3] = target: MST2 (Homo sapiens, UniProt Q13188); test: Protein kinase assay ([γ-32P] ATP), MST2; conditions: read-out: Activity of the protein kinase when treated with compound I-1 (% control)
Procedure: as §1, §2, §3, §4, §5

[4] = target: Aurora B (Homo sapiens, UniProt Q96GD4); test: Protein kinase assay ([γ-32P] ATP), Aurora B; conditions: read-out: Activity of the protein kinase when treated with compound I-1 (% control)
Procedure: as §1, §2, §3, §4, §5

[5] = target: NEK2a (Homo sapiens, UniProt P51955); test: Protein kinase assay ([γ-32P] ATP), NEK2a; conditions: read-out: Activity of the protein kinase when treated with compound I-1 (% control)
Procedure: as §1, §2, §3, §4, §5

[6] = tested on: CK2; test: Protein kinase assay ([γ-32P] ATP), CK2
Procedure: as §1, §2, §3, §4, §5

[7] = target: PKBb (Homo sapiens, UniProt P31751); test: Protein kinase assay ([γ-32P] ATP), PKBb; conditions: read-out: Activity of the protein kinase when treated with compound I-1 (% control)
Procedure: as §1, §2, §3, §4, §5

[8] = target: ABL (Homo sapiens, UniProt P00519); test: Protein kinase assay ([γ-32P] ATP), ABL; conditions: read-out: Activity of the protein kinase when treated with compound I-1 (% control)
Procedure: as §1, §2, §3, §4, §5

[9] = target: EF2K (Homo sapiens, UniProt O00418); test: Protein kinase assay ([γ-32P] ATP), EF2K; conditions: read-out: Activity of the protein kinase when treated with compound I-1 (% control)
Procedure: as §1, §2, §3, §4, §5

[10] = target: MINK1 (Homo sapiens, UniProt Q8N4C8); test: Protein kinase assay ([γ-32P] ATP), MINK1; conditions: read-out: Activity of the protein kinase when treated with compound I-1 (% control)
Procedure: as §1, §2, §3, §4, §5

[11] = target: EIF2AK3 (Homo sapiens, UniProt Q9NZJ5); test: Protein kinase assay ([γ-32P] ATP), EIF2AK3; conditions: read-out: Activity of the protein kinase when treated with compound I-1 (% control)
Procedure: as §1, §2, §3, §4, §5

[12] = target: TTBK1 (Homo sapiens, UniProt Q5TCY1); test: Protein kinase assay ([γ-32P] ATP), TTBK1; conditions: read-out: Activity of the protein kinase when treated with compound I-1 (% control)
Procedure: as §1, §2, §3, §4, §5

[13] = target: TBK1 (Homo sapiens, UniProt Q9UHD2); test: Protein kinase assay ([γ-32P] ATP), TBK1; conditions: read-out: Activity of the protein kinase when treated with compound I-1 (% control)
Procedure: as §1, §2, §3, §4, §5

[14] = target: IR (Homo sapiens, UniProt P06213); test: Protein kinase assay ([γ-32P] ATP), IR; conditions: read-out: Activity of the protein kinase when treated with compound I-1 (% control)
Procedure: as §1, §2, §3, §4, §5

[15] = target: YES1 (Homo sapiens, UniProt P07947); test: Protein kinase assay ([γ-32P] ATP), YES1; conditions: read-out: Activity of the protein kinase when treated with compound I-1 (% control)
Procedure: as §1, §2, §3, §4, §5

[16] = target: PAK6 (Homo sapiens, UniProt Q9NQU5); test: Protein kinase assay ([γ-32P] ATP), PAK6; conditions: read-out: Activity of the protein kinase when treated with compound I-1 (% control)
Procedure: as §1, §2, §3, §4, §5

[17] = target: MLK3 (Homo sapiens, UniProt Q16584); test: Protein kinase assay ([γ-32P] ATP), MLK3; conditions: read-out: Activity of the protein kinase when treated with compound I-1 (% control)
Procedure: as §1, §2, §3, §4, §5

[18] = 0.1 μM of compound I-1, DMSO control = 100%
[19] = 1 μM of compound I-1, DMSO control = 100%

Chain of NEK2a (P51955 whole entry): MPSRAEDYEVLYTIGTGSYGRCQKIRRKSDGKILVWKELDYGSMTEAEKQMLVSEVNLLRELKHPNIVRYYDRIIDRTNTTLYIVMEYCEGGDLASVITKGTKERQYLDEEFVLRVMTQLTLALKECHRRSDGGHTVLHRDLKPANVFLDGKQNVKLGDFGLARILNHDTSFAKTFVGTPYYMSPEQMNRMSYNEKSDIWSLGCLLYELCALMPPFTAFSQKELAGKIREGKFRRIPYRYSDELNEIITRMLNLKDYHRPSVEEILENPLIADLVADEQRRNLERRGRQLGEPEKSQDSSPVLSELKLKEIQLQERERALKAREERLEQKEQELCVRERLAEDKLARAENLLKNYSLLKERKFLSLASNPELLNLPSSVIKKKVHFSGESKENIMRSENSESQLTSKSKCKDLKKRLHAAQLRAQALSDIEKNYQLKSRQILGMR
Chain of Aurora B (Q96GD4 whole entry): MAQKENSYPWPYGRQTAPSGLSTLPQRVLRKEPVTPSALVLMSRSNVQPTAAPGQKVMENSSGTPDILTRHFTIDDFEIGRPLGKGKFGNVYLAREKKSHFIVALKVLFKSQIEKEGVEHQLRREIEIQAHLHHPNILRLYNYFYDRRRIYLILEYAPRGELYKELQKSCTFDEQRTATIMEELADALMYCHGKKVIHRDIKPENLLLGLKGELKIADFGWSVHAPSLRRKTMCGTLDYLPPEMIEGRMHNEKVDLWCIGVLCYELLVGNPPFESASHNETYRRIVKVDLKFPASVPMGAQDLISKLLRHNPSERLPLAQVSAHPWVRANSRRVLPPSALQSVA
Chain of MINK1 (Q8N4C8 whole entry): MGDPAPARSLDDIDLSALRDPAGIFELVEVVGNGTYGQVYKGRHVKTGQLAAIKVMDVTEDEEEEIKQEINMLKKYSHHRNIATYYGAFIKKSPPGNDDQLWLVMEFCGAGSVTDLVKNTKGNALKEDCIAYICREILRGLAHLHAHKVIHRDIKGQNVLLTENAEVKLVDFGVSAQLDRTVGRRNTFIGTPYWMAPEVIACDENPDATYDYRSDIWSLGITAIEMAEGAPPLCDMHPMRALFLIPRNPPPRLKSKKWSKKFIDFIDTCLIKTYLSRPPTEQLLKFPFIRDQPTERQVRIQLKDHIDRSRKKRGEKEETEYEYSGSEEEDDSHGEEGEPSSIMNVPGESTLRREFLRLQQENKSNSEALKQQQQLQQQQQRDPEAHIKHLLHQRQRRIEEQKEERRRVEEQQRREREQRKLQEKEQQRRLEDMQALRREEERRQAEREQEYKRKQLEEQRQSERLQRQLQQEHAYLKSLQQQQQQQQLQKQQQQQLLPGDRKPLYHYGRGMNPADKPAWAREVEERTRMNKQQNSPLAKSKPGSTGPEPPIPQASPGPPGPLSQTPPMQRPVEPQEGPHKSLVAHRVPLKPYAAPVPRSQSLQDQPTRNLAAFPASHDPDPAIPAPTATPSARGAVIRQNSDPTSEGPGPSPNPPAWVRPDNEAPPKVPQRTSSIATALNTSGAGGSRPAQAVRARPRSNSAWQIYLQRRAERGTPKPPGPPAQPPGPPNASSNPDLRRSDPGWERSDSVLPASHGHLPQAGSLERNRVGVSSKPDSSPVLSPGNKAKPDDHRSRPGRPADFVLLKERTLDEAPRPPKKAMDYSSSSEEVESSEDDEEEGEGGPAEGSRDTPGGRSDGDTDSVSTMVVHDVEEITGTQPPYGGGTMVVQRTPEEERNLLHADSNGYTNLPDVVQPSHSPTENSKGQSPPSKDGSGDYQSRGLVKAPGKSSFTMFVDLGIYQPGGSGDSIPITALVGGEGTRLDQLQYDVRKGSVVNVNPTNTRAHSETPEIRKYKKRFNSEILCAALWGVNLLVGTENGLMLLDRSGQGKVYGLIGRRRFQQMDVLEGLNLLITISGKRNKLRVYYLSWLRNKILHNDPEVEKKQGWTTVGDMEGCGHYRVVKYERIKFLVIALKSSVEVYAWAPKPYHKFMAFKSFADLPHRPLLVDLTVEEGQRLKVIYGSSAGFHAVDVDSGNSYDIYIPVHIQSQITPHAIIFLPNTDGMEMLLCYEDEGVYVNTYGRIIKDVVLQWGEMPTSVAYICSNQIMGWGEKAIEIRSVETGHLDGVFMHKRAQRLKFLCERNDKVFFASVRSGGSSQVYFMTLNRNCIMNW
Chain of MLK3 (Q16584 whole entry): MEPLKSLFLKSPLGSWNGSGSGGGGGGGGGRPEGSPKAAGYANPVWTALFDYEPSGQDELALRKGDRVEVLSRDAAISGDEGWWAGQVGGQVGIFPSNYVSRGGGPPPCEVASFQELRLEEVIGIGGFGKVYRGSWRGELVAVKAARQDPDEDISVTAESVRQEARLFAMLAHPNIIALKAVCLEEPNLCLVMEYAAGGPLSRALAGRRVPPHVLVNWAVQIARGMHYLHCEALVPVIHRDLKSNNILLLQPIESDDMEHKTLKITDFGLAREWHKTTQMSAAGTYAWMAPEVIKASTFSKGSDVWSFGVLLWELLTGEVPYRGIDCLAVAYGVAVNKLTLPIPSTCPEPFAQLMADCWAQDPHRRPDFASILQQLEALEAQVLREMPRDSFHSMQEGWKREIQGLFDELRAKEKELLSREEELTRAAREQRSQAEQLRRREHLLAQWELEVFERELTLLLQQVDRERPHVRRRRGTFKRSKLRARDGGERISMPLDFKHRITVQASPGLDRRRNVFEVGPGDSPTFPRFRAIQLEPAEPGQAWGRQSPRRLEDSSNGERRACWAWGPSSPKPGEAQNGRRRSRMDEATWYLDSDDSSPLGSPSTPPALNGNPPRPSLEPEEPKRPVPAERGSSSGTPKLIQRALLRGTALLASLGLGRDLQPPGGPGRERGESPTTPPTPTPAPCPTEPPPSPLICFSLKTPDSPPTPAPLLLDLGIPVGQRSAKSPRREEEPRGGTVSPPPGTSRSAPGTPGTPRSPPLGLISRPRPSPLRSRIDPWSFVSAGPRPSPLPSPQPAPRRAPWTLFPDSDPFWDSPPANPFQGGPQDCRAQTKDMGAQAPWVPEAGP
Chain of TTBK1 (Q5TCY1 whole entry, species assumed): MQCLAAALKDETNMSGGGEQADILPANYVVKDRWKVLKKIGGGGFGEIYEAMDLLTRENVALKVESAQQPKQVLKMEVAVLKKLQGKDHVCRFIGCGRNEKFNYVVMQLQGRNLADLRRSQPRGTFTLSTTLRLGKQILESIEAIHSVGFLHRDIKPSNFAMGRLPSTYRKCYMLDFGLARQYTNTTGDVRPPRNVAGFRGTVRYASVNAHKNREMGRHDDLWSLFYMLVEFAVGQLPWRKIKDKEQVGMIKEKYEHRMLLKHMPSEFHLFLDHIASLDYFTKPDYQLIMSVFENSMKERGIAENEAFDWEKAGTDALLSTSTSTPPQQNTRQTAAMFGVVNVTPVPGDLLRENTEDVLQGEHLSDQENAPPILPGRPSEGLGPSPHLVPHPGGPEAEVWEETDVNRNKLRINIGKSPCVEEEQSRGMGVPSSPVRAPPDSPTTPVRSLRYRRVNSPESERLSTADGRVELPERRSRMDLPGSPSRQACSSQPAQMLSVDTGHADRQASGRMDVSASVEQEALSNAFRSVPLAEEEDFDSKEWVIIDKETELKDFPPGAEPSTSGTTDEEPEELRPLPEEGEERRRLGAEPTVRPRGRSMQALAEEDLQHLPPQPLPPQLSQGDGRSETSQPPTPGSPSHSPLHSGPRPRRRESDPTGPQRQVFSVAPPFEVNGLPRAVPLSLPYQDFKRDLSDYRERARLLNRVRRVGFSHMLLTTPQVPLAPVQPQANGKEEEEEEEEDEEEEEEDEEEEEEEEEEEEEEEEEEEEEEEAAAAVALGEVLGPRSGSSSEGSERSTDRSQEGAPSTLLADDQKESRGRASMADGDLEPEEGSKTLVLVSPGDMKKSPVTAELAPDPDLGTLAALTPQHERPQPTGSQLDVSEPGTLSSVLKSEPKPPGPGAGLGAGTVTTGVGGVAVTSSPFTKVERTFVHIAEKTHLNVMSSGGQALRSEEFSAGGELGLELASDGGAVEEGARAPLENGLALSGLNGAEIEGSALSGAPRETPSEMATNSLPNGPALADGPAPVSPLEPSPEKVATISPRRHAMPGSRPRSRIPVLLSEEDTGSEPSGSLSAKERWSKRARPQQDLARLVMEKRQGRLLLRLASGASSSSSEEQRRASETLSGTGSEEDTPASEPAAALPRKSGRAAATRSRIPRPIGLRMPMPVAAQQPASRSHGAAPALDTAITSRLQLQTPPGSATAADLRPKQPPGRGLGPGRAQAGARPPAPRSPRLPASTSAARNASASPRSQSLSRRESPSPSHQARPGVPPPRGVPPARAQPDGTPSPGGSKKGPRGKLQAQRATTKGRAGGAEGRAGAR
Chain of DYRK3 (O43781 whole entry): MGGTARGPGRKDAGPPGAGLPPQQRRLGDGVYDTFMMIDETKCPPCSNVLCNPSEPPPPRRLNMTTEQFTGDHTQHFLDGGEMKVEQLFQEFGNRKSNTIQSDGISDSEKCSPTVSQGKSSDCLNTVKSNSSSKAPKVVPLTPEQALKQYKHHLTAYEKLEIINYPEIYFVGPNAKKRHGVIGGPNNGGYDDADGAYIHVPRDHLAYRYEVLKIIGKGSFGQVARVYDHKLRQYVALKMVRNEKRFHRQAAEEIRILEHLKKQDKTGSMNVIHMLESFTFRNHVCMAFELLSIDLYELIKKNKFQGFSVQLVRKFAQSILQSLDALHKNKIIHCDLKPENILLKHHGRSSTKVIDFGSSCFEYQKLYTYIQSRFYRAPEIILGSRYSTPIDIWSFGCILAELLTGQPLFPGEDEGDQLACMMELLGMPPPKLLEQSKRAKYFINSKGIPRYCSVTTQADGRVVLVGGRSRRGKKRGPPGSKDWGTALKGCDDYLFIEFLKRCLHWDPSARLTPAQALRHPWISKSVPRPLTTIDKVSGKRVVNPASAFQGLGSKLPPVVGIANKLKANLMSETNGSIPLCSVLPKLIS

**Q.** How did the remaining activity at 0.1 µM [1, 18] turn out when `Cc1cccc(C)c1NC(=O)N1C/C=C\COc2cccc(c2)Nc2cc1ncn2` [Compound I-1] was run?
**A.** 99%

**Q.** What about the remaining activity at 1 µM [1, 19] of the same compound?
**A.** 87%

**Q.** What about the remaining activity at 0.1 µM [2, 18] of the same compound?
**A.** 110%

**Q.** And the remaining activity at 1 µM [2, 19]?
**A.** 91%

**Q.** And the remaining activity at 0.1 µM [3, 18]?
**A.** 99%

**Q.** And the remaining activity at 1 µM [3, 19]?
**A.** 98%

**Q.** And the remaining activity at 0.1 µM [4, 18]?
**A.** 89%

**Q.** What about the remaining activity at 1 µM [4, 19] of the same compound?
**A.** 78%

**Q.** What about the remaining activity at 0.1 µM [5, 18] of the same compound?
**A.** 97%

**Q.** And the remaining activity at 1 µM [5, 19]?
**A.** 85%

**Q.** What about the “Activity of the protein kinase when treated with compound I-1 (% control)” value [6, 18] of the same compound?
**A.** 97 % control

**Q.** What about the “Activity of the protein kinase when treated with compound I-1 (% control)” value [6, 19] of the same compound?
**A.** 91 % control

**Q.** And the remaining activity at 0.1 µM [7, 18]?
**A.** 102%

**Q.** And the remaining activity at 1 µM [7, 19]?
**A.** 89%

**Q.** What about the remaining activity at 0.1 µM [8, 18] of the same compound?
**A.** 7%

**Q.** And the remaining activity at 1 µM [8, 19]?
**A.** 2%

**Q.** And the remaining activity at 0.1 µM [9, 18]?
**A.** 103%

**Q.** And the remaining activity at 1 µM [9, 19]?
**A.** 83%

**Q.** And the remaining activity at 0.1 µM [10, 18]?
**A.** 46%

**Q.** And the remaining activity at 1 µM [10, 19]?
**A.** 9%

**Q.** What about the remaining activity at 0.1 µM [11, 18] of the same compound?
**A.** 97%

**Q.** And the remaining activity at 1 µM [11, 19]?
**A.** 80%

**Q.** And the remaining activity at 0.1 µM [12, 18]?
**A.** 115%

**Q.** What about the remaining activity at 1 µM [12, 19] of the same compound?
**A.** 80%

**Q.** And the remaining activity at 0.1 µM [13, 18]?
**A.** 109%

**Q.** What about the remaining activity at 1 µM [13, 19] of the same compound?
**A.** 83%

**Q.** And the remaining activity at 0.1 µM [14, 18]?
**A.** 102%

**Q.** And the remaining activity at 1 µM [14, 19]?
**A.** 93%

**Q.** What about the remaining activity at 0.1 µM [15, 18] of the same compound?
**A.** 10%

**Q.** What about the remaining activity at 1 µM [15, 19] of the same compound?
**A.** 15%

**Q.** What about the remaining activity at 0.1 µM [16, 18] of the same compound?
**A.** 101%

**Q.** And the remaining activity at 1 µM [16, 19]?
**A.** 78%

**Q.** And the remaining activity at 0.1 µM [17, 18]?
**A.** 94%

**Q.** And the remaining activity at 1 µM [17, 19]?
**A.** 39%
